Measured values reported in patent publication US20150315241A1, “Antibiotic Peptides” (priority 2007, published 2015).
Values after ≈ are worked out from the molar mass of the structure shown. Where a SMILES comes first, the peptide text is derived from it. Where no end group is shown, it is not given here. [ ]: non-standard residue; d: D form. Cha = N[C@@H](CC1CCCCC1)C(=O)O; NMeL = CN[C@@H](CC(C)C)C(=O)O; Orn = NCCC[C@H](N)C(=O)O

What was measured:
E. coli 45849 = test: Growth inhibition assay (MIC); assay type: cell-based, Escherichia coli
Experimental: (§1) The minimal inhibition concentrations (MIC) of the apidaecin-derived peptides and peptide-derivatives were determined by a growth inhibition assay using a serial peptide dilution in sterilized round-bottom 96-well plates (polystyrene, U-bottom, Greiner Bio-One GmbH) with a final volume of 100 μL per well. The bacteria, e.g., E. coli BL21 A1, were grown in nutrient broth (NB, Carl Roth GmbH+Co. KG, Karlsruhe, Germany) at 37° C. over night. To each well of the 96-well plate, 50 μL of the overnight culture adjusted to 5×10^6 CFU/mL in 1% TSB were added. Lyophilized peptides and peptidomimetics were dissolved in 1% TSB (tryptic soy broth) or water to give a final concentration of 250 μg/mL. Fifty μL of the peptide or peptidomimetics solution were added to the first well of a row on the plate and mixed. Fifty μL of the first well containing the peptide solution were transferred to the second well, mixed and again 50 μL transferred to the next well and so on. Thereby, a two-fold dilution series was obtained starting at 250 μg/mL in the first well down to 120 ng/mL in the 12th well of a row giving a final peptide or peptidomimetics concentration from 125 μg/mL (well 1) to 60 ng/mL (well 12). Plates were incubated at 37° C. for 20 hrs. The absorbance was measured at 595 nm using a TECAN micro plate spectrophotometer (Tecan, Germany). All peptides and peptidomimetics were measured in triplicates. Sterilized water was used as a negative control.
(§2) The following multidrug resistant bacteria strains were tested: • Eschericha coli 45849 and D31, • Klebsiella pneumoniae 123132 and K6, • Salmonella typhi S5 and Salmonella enterica subsp. enterica serovar Typhimurium (ATCC 700408), • Rhizobium radiobacter (ATCC 15955 deposited as Agrobacterium tumefaciens).

S. typhi S5 = assay type: cell-based, Salmonella typhi; details: S5, 20 h
Experimental: as §1, §2

E. coli D31 = assay type: cell-based, Escherichia coli; details: D31, 20 h
Experimental: as §1, §2

K. Pneumonia 123132 = test: Growth inhibition assay (MIC); assay type: cell-based, Klebsiella pneumoniae
Experimental: as §1, §2

[1] = test system: K. Pneumonia K6, ATCC 700603; test: Growth inhibition assay (MIC); assay type: cell-based, Klebsiella pneumoniae; details: multidrug resistant strain; 1% TSB, 37° C., 20 hrs
Experimental: as §1, §2

[2] = test system: S. enterica subsp. Enterica serovar. typhi G10215 ATCC 700408; assay type: cell-based, Salmonella enterica; details: ATCC 700408, 20 h
Experimental: as §1, §2

[3] = test system: R. radiobatter ATCC 15955; test: Growth inhibition assay (MIC); assay type: cell-based, Rhizobium radiobacter
Experimental: as §1, §2

E. coli BL 21 AI = test: Growth inhibition assay (MIC); assay type: cell-based, Escherichia coli; details: 1% TSB, 37° C., 20 hrs
Summary of the method: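 Bacteria grown overnight in NB at 37° C. were adjusted to 5×10^6 CFU/mL in 1% TSB and mixed 1:1 with a two-fold peptide series (final 125 μg/mL–60 ng/mL). After 20 hrs at 37° C., A595 was read; triplicates.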

[4] = multidrug resistant strain, 1% TSB, 37° C., 20 hrs

Compound | MIC E. coli 45849 (E. coli 45849; 45849, 20 h) [µg/mL] | MIC S. typhi S5 (S. typhi S5) [µg/mL] | MIC E. coli D31 (E. coli D31) [µg/mL] | MIC K. Pneumonia 123132 (K. Pneumonia 123132; 20 h) [µg/mL] | MIC K. Pneumonia K6, ATCC 700603 [1] [µg/mL] | MIC S. enterica subsp. Enterica serovar. typhi G10215 ATCC 700408 [2] [µg/mL] | MIC R. radiobatter ATCC 15955 ([3]; ATCC 15955, 20 h) [µg/mL] | MIC E. coli 45849 (E. coli 45849; [4]) [µg/mL] | MIC K. Pneumonia 123132 (K. Pneumonia 123132; [4]) [µg/mL] | MIC R. radiobatter ATCC 15955 [3, 4] [µg/mL] | MIC E. coli BL 21 AI (E. coli BL 21 AI) [µg/mL]
CC[C@H](C)[C@H](NC(=O)[C@H](Cc1ccc(O)cc1)NC(=O)[C@@H](NC(=O)[C@@H]1CCCN1C(=O)[C@H](CCCNC(=N)N)NC(=O)[C@H](CC(N)=O)NC(=O)[C@H](CC(N)=O)NC(=O)[C@H](CCCN)NC(C)=O)C(C)C)C(=O)N1CCC[C@H]1C(=O)N[C@@H](CCCN)C(=O)N1CCC[C@H]1C(=O)N[C@@H](CCCNC(=N)N)C(=O)N1CCC[C@H]1C(=O)N1CCC[C@H]1C(=O)N[C@@H](Cc1c[nH]cn1)C(=O)N1CCC[C@H]1C(=O)N[C@@H](CCCNC(=N)N)C(=O)N[C@@H](CC1CCCCC1)C(N)=O [compound 46] (Ac-[Orn]NNRPVYIP[Orn]PRPPHPR[Cha]-NH2) | 32 (≈ 14.3 µM) | 32 (≈ 14.3 µM) | 16 (≈ 7.17 µM) | 32 to 64 | 32 to 64 | 8 (≈ 3.58 µM) | 10.5 (≈ 4.7 µM) | – | – | – | –
CC[C@H](C)[C@H](NC(=O)[C@H](Cc1ccc(O)cc1)NC(=O)[C@@H](NC(=O)[C@@H]1CCCN1C(=O)[C@H](CCCNC(=N)N)NC(=O)[C@H](CC(N)=O)NC(=O)[C@H](CC(N)=O)NC(=O)[C@@H](N)CCCN)C(C)C)C(=O)N1CCC[C@H]1C(=O)N[C@@H](CCCNC(=N)N)C(=O)N1CCC[C@H]1C(=O)N[C@@H](CCCNC(=N)N)C(=O)N1CCC[C@H]1C(=O)N1CCC[C@H]1C(=O)N[C@@H](Cc1c[nH]cn1)C(=O)N1CCC[C@H]1C(=O)N[C@@H](CCCNC(=N)N)C(=O)N(C)[C@@H](CC(C)C)C(N)=O [compound 47] (H-[Orn]NNRPVYIPRPRPPHPR[NMeL]-NH2) | – | 32 (≈ 14.5 µM) | 8 (≈ 3.63 µM) | – | 32 to 64 | 8 (≈ 3.63 µM) | – | 4 (≈ 1.81 µM) | 32 (≈ 14.5 µM) | 1.3 (≈ 0.589 µM) | –
CC[C@H](C)[C@H](NC(=O)[C@H](Cc1ccc(O)cc1)NC(=O)[C@@H](NC(=O)[C@@H]1CCCN1C(=O)[C@H](CCCNC(=N)N)NC(=O)[C@H](CC(N)=O)NC(=O)[C@H](CC(N)=O)NC(=O)[C@H](CCCN)NC(C)=O)C(C)C)C(=O)N1CCC[C@H]1C(=O)N[C@@H](CCCNC(=N)N)C(=O)N1CCC[C@H]1C(=O)N[C@@H](CCCNC(=N)N)C(=O)N1CCC[C@H]1C(=O)N1CCC[C@H]1C(=O)N[C@@H](Cc1c[nH]cn1)C(=O)N1CCC[C@H]1C(=O)N[C@@H](CCCNC(=N)N)C(=O)N[C@@H](CC(C)C)C(=O)OC [compound 48] (Ac-[Orn]NNRPVYIPRPRPPHPRL-OMe) | – | 4 (≈ 1.78 µM) | 64 (≈ 28.4 µM) | – | 128 (≈ 56.9 µM) | 16 (≈ 7.11 µM) | – | 4 (≈ 1.78 µM) | 32 (≈ 14.2 µM) | 1.3 (≈ 0.578 µM) | –
CC[C@H](C)[C@H](NC(=O)[C@H](Cc1ccc(O)cc1)NC(=O)[C@@H](NC(=O)[C@@H]1CCCN1C(=O)[C@H](CCCNC(=N)N)NC(=O)[C@H](CC(N)=O)NC(=O)[C@H](CC(N)=O)NC(=O)[C@H](CCCN)NC(C)=O)C(C)C)C(=O)N1CCC[C@H]1C(=O)N[C@@H](CCCN)C(=O)N1CCC[C@H]1C(=O)N[C@@H](CCCNC(=N)N)C(=O)N1CCC[C@H]1C(=O)N1CCC[C@H]1C(=O)N[C@@H](Cc1c[nH]cn1)C(=O)N1CCC[C@H]1C(=O)N[C@@H](CCCNC(=N)N)C(=O)N[C@@H](CC(C)C)C(=O)OC [compound 49] (Ac-[Orn]NNRPVYIP[Orn]PRPPHPRL-OMe) | 2 (≈ 0.906 µM) | 4 (≈ 1.81 µM) | 32 (≈ 14.5 µM) | 64 (≈ 29 µM) | 128 (≈ 58 µM) | 8 (≈ 3.62 µM) | 1.3 (≈ 0.589 µM) | – | – | – | –
KNNRPVYIPKPRPPHPRL-NH2 [compound 21] | – | 1 | 8 | – | 8 | 0.25 to 0.5 | – | <0.25 | 4 | 0.65 | 1.95 to 3.91
